Measured values reported in PubChem BioAssay AID1919017 (Molecular Pharmacology Branch, DTP, NCI, 2023).

System: SW1271 complex spheroids with HUVEC/MSC, growth, % test/control
Experiment: Anticancer human tumor SW1271 cell line growth inhibition [AhR];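 also: spheroids exposed to agents for 7 days before readout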
Conditions: for IC50: curve of first compound; for viability, T/C: stronger effect = lower value
Summary of the method: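 Spheroids combined tumor cells with HUVEC endothelial cells and human MSCs as stroma. AhR antagonists were paired with standard or investigational drugs, each dosed in half-log steps down from near clinical Cmax, or from 10 microM where Cmax was unknown.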

[1] = second compound 0.1 µM, first compound 0.0316 µM
[2] = second compound 0.1 µM, first compound 0.1 µM
[3] = second compound 0.1 µM, first compound 0.316 µM
[4] = second compound 0.1 µM, first compound 1 µM
[5] = second compound 0.1 µM, first compound 3.16 µM
[6] = second compound 0.1 µM, first compound 10 µM
[7] = second compound 0.316 µM, first compound 0.0316 µM
[8] = second compound 0.316 µM, first compound 0.1 µM
[9] = second compound 0.316 µM, first compound 0.316 µM
[10] = second compound 0.316 µM, first compound 1 µM
[11] = second compound 0.316 µM, first compound 3.16 µM
[12] = second compound 0.316 µM, first compound 10 µM
[13] = second compound 1 µM, first compound 0.0316 µM
[14] = second compound 1 µM, first compound 0.1 µM
[15] = second compound 1 µM, first compound 0.316 µM
[16] = second compound 1 µM, first compound 1 µM
[17] = second compound 1 µM, first compound 3.16 µM
[18] = second compound 1 µM, first compound 10 µM
[19] = second compound 3.16 µM, first compound 0.0316 µM
[20] = second compound 3.16 µM, first compound 0.1 µM
[21] = second compound 3.16 µM, first compound 0.316 µM
[22] = second compound 3.16 µM, first compound 1 µM
[23] = second compound 3.16 µM, first compound 3.16 µM
[24] = second compound 3.16 µM, first compound 10 µM
[25] = second compound 10 µM, first compound 0.0316 µM
[26] = second compound 10 µM, first compound 0.1 µM
[27] = second compound 10 µM, first compound 0.316 µM
[28] = second compound 10 µM, first compound 1 µM
[29] = second compound 10 µM, first compound 3.16 µM
[30] = second compound 10 µM, first compound 10 µM

In the case of `Nc1ncn(C2CC(O)C(CO)S2)c(=O)n1` (stereo not given) + Cc1ccccc1N=Nc1ccc(NC(=O)c2ccnn2C)c(C)c1, the IC50 (second compound 0.1 µM) is reported as over 0.3 µM, the IC50 (second compound 0.316 µM) is reported as over 0.3 µM and the IC50 (second compound 1 µM) is reported as over 0.3 µM. It also gave an IC50 (second compound 3.16 µM) of over 0.3 µM, an IC50 (second compound 10 µM) of over 0.3 µM and a viability, T/C (second compound 0.1 µM, first compound 0.000949 µM) of 120%. It also gave a viability, T/C (second compound 0.1 µM, first compound 0.003 µM) of 102%, a viability, T/C (second compound 0.1 µM, first compound 0.00949 µM) of 87.8% and a viability, T/C (second compound 0.1 µM, first compound 0.03 µM) of 102%. The viability, T/C (second compound 0.1 µM, first compound 0.0949 µM) was 95.4%, the viability, T/C (second compound 0.1 µM, first compound 0.3 µM) was 79.5% and the viability, T/C (second compound 0.316 µM, first compound 0.000949 µM) was 101%. It also gave a viability, T/C (second compound 0.316 µM, first compound 0.003 µM) of 94.4%, a viability, T/C (second compound 0.316 µM, first compound 0.00949 µM) of 83.6% and a viability, T/C (second compound 0.316 µM, first compound 0.03 µM) of 89.2%. The viability, T/C (second compound 0.316 µM, first compound 0.0949 µM) was 89.9%, the viability, T/C (second compound 0.316 µM, first compound 0.3 µM) was 78.6% and the viability, T/C (second compound 1 µM, first compound 0.000949 µM) was 87.9%. For the same molecule, the viability, T/C (second compound 1 µM, first compound 0.003 µM) was 96%, the viability, T/C (second compound 1 µM, first compound 0.00949 µM) was 109% and the viability, T/C (second compound 1 µM, first compound 0.03 µM) was 94.6%. The viability, T/C (second compound 1 µM, first compound 0.0949 µM) was 76.9%, the viability, T/C (second compound 1 µM, first compound 0.3 µM) was 99.9% and the viability, T/C (second compound 3.16 µM, first compound 0.000949 µM) was 81.2%. The viability, T/C (second compound 3.16 µM, first compound 0.003 µM) was 115%, the viability, T/C (second compound 3.16 µM, first compound 0.00949 µM) was 116% and the viability, T/C (second compound 3.16 µM, first compound 0.03 µM) was 88.7%. For the same molecule, the viability, T/C (second compound 3.16 µM, first compound 0.0949 µM) was 85.4%, the viability, T/C (second compound 3.16 µM, first compound 0.3 µM) was 105% and the viability, T/C (second compound 10 µM, first compound 0.000949 µM) was 103%. It also gave a viability, T/C (second compound 10 µM, first compound 0.003 µM) of 95.3%, a viability, T/C (second compound 10 µM, first compound 0.00949 µM) of 86% and a viability, T/C (second compound 10 µM, first compound 0.03 µM) of 92.7%. The viability, T/C (second compound 10 µM, first compound 0.0949 µM) was 85% and the viability, T/C (second compound 10 µM, first compound 0.3 µM) was 77.2%.
Molecule `CC(C)c1c(-c2ccccc2)nc2c(C#N)c[nH]n2c1=O` + CC(CO)NC(=O)c1cc(-c2ccc(Cl)cc2)nn(-c2cnn(C)c2)c1=O has an IC50 (second compound 0.1 µM) of over 10 µM, an IC50 (second compound 0.316 µM) of over 10 µM and an IC50 (second compound 1 µM) of over 10 µM. For the same molecule, the IC50 (second compound 3.16 µM) was over 10 µM, the IC50 (second compound 10 µM) was over 10 µM and the viability, T/C [1] was 88.4%. The viability, T/C [2] was 101%, the viability, T/C [3] was 106% and the viability, T/C [4] was 90.9%. For the same molecule, the viability, T/C [5] was 95.7%, the viability, T/C [6] was 121% and the viability, T/C [7] was 88.7%. It also gave a viability, T/C [8] of 85.3%, a viability, T/C [9] of 91.4% and a viability, T/C [10] of 98.1%. For the same molecule, the viability, T/C [11] was 93.8%, the viability, T/C [12] was 108% and the viability, T/C [13] was 78.7%. It also gave a viability, T/C [14] of 89.9%, a viability, T/C [15] of 86.4% and a viability, T/C [16] of 78.7%. The viability, T/C [17] was 107%, the viability, T/C [18] was 94.8% and the viability, T/C [19] was 95.7%. The viability, T/C [20] was 97.8%, the viability, T/C [21] was 80.1% and the viability, T/C [22] was 78%. It also gave a viability, T/C [23] of 82.8%, a viability, T/C [24] of 76.8% and a viability, T/C [25] of 71.8%. It also gave a viability, T/C [26] of 80.8%, a viability, T/C [27] of 67.8% and a viability, T/C [28] of 71.3%. For the same molecule, the viability, T/C [29] was 62.9% and the viability, T/C [30] was 77.8%.
Molecule `CC1COCCN1c1cc(C2(S(C)(=N)=O)CC2)nc(-c2ccnc3[nH]ccc23)n1` (stereo not given) + Cc1cncc(-c2nc(NCCc3c[nH]c4ccccc34)c3ncn(C(C)C)c3n2)c1 has an IC50 (second compound 0.1 µM) of over 10 µM, an IC50 (second compound 0.316 µM) of over 10 µM and an IC50 (second compound 1 µM) of over 10 µM. It also gave an IC50 (second compound 3.16 µM) of over 10 µM, an IC50 (second compound 10 µM) of under 0.0316 µM and a viability, T/C [1] of 87.4%. For the same molecule, the viability, T/C [2] was 103%, the viability, T/C [3] was 85.7% and the viability, T/C [4] was 88.1%. It also gave a viability, T/C [5] of 85.3%, a viability, T/C [6] of 67.8% and a viability, T/C [7] of 85.5%. The viability, T/C [8] was 103%, the viability, T/C [9] was 106% and the viability, T/C [10] was 103%. It also gave a viability, T/C [11] of 71.7%, a viability, T/C [12] of 52.6% and a viability, T/C [13] of 83.7%. For the same molecule, the viability, T/C [14] was 87.7%, the viability, T/C [15] was 88.7% and the viability, T/C [16] was 84.5%. The viability, T/C [17] was 90.2%, the viability, T/C [18] was 62.7% and the viability, T/C [19] was 83%. The viability, T/C [20] was 93%, the viability, T/C [21] was 93.6% and the viability, T/C [22] was 71.1%. The viability, T/C [23] was 69.4%, the viability, T/C [24] was 59.3% and the viability, T/C [25] was 51.6%. For the same molecule, the viability, T/C [26] was 46.9%, the viability, T/C [27] was 45.5% and the viability, T/C [28] was 40%. The viability, T/C [29] was 43.3% and the viability, T/C [30] was 28.9%.
